Assay results taken from ChEMBL document CHEMBL6120961, “Design, Synthesis, and Biological Evaluation of Covalently Mucoadhesive Derivatives as Nonsystemic Intestine-Targeted TGR5 Agonists” (J Med Chem, 2024).
The source made the active and inactive calls. The rule behind the calls is not given here.

What was measured:
[1] = Apparent permeability across apical to basolateral side in human Caco-2 cells assessed as drug recovery at 2 uM incubated for 2 hrs by LC-MS/MS analysis; type: ADME, cell-based; conditions: read-out: Drug recovery
[2] = Apparent permeability across apical to basolateral side in human Caco-2 cells at 2 uM incubated for 2 hrs by LC-MS/MS analysis; type: ADME, cell-based
[3] = Toxicity in overnight fasted male C57BL/6J mouse assessed as increase in bile weight at 50 mg/kg, po measured after 6 hrs; type: organism-based; conditions: in vivo
[4] = Toxicity in overnight fasted male C57BL/6J mouse assessed as increase in gallbladder volume at 50 mg/kg, po measured after 6 hrs; type: organism-based; conditions: in vivo
[5] = test system: Mus musculus; assay: (§1) Hypoglycemic activity in overnight fasted C57BL/6 mouse assessed as reduction in blood glucose level at 50 mg/kg, po preadministered with compound for 60 mins followed by first dose of glucose administration for 120 mins and measured after 120 mins of second glucose administration by oral glucose tolerance test; type: functional, organism-based; conditions: time 5.0 hrs
[6] = target: T1, G-protein coupled bile acid receptor 1 (Homo sapiens, UniProt Q8TDU6); assay: Agonist activity at human TGR5 expressed in HEK293T cells assessed as cAMP production incubated for 30 mins by HTRF assay; type: functional, cell-based
T1 sequence (Q8TDU6 whole entry): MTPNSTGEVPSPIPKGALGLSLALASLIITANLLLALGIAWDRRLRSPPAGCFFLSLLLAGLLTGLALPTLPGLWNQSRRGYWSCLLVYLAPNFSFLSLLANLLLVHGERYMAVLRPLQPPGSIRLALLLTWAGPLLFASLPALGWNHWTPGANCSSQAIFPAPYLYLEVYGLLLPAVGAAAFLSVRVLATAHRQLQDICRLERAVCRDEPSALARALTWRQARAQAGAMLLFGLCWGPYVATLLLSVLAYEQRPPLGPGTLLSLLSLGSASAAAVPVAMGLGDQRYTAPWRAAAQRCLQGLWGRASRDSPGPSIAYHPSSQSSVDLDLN

[7] = target: T2, G-protein coupled bile acid receptor 1 (Mus musculus, UniProt Q80SS6); assay: Agonist activity at mouse TGR5 expressed in HEK293T cells assessed as cAMP production incubated for 30 mins by HTRF assay; type: cell-based
T2 sequence (Q80SS6 whole entry): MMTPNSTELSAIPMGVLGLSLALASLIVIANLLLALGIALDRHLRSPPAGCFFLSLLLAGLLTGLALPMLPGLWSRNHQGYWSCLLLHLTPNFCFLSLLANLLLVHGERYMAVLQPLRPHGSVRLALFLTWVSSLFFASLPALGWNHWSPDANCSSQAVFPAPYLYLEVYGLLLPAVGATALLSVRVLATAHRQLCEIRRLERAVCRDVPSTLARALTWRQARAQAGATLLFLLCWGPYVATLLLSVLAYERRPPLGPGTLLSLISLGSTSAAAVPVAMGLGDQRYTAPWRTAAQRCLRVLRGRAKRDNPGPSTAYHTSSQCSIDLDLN

[8] = Apparent permeability across basolateral to apical side in human Caco-2 cells at 2 uM incubated for 2 hrs by LC-MS/MS analysis; type: ADME, cell-based
[9] = Acute toxicity in overnight fasted male C57BL/6J mouse model assessed as effect on urea level in blood at 50 mg/kg, IG administered for 3 days; type: organism-based; conditions: in vivo, po, 72 h, time 3 day
[10] = test system: Mus musculus; assay: Hypoglycemic activity in TGR5-/- mouse model assessed as reduction in blood glucose level at 50 mg/kg, po preadministered with compound for 60 mins followed by glucose administration and measured after 120 mins by oral glucose tolerance test; type: functional, organism-based; conditions: time 180.0 min
[11] = Toxicity in overnight fasted male C57BL/6J mouse assessed as increase in gallbladder volume at 50 mg/kg, iv measured after 2 hrs; type: organism-based; conditions: in vivo
[12] = Acute toxicity in overnight fasted male C57BL/6J mouse model assessed as effect on total protein level in blood at 50 mg/kg, IG administered for 3 days; type: organism-based; conditions: in vivo, po, 72 h, time 3 day
[13] = species on record: Homo sapiens; assay: Binding affinity to mucin (unknown origin) assessed as disappearance of peak at 9.793 retention time incubated for 2 hrs by HPLC analysis
[14] = test system: Mus musculus; assay: Hypoglycemic activity in non-fasted diabetic db/db mouse model assessed as decrease in plasma HbA1c level at 50 mg/kg, IG administered once daily for 28 days by glycosylated hemoglobin (GHb) assay; type: functional, organism-based; conditions: time 28.0 day
[15] = Acute toxicity in overnight fasted male C57BL/6J mouse model assessed as effect on ALP level in blood at 50 mg/kg, IG administered for 3 days; type: organism-based; conditions: in vivo, po, 72 h, time 3 day
[16] = Acute toxicity in overnight fasted male C57BL/6J mouse model assessed as effect on LDH level in blood at 50 mg/kg, IG administered for 3 days; type: organism-based; conditions: in vivo, po, 72 h, time 3 day
[17] = test system: Mus musculus; assay: as §1, with “AUC (180 to 300 min)” for “level”, “test relative to control” for “test”; type: functional; parameters: scale not given: the % may be the effect or the level left; conditions: time 5 hrs
[18] = Acute toxicity in overnight fasted male C57BL/6J mouse model assessed as effect on […] level in blood at 50 mg/kg, IG administered for 3 days; type: organism-based; conditions: in vivo, po, 72 h, time 3 day
[19] = Acute toxicity in overnight fasted male C57BL/6J mouse model assessed as increase in ALT level in blood at 200 mg/kg, IG administered for 3 days; type: organism-based; conditions: in vivo, po, 72 h, time 3 day
[20] = Toxicity in overnight fasted male C57BL/6J mouse assessed as increase in bile weight at 50 mg/kg, iv measured after 2 hrs; type: organism-based; conditions: in vivo
[21] = Apparent permeability across basolateral to apical side in human Caco-2 cells assessed as drug recovery at 2 uM incubated for 2 hrs by LC-MS/MS analysis; type: ADME, cell-based; conditions: read-out: Drug recovery
[22] = Acute toxicity in overnight fasted male C57BL/6J mouse model assessed as histopathological change in liver at 50 to 200 mg/kg, IG administered for 3 days by H and E staining based analysis; type: organism-based; conditions: in vivo, po, 72 h, dose 50-200 mg/kg, time 3 day
[23] = target: T3, G-protein coupled bile acid receptor 1 (Homo sapiens) (UniProt Q8TDU6); assay: Agonist activity at TGR5 in human NCI-H716 cells assessed as increase in GLP-1 secretion at 10 uM preincubated with vildagliptin followed by compound addition and measured after 2 hrs by GLP-1(7 to 36) ELISA; type: functional, cell-based; conditions: filed as agonist
T3 sequence (whole entry): T1 sequence (Q8TDU6 whole entry)

[24] = Acute toxicity in overnight fasted male C57BL/6J mouse model assessed as increase in AST level in blood at 200 mg/kg, IG administered for 3 days; type: organism-based; conditions: in vivo, po, 72 h, time 3 day
[25] = test system: Mus musculus; assay: In vivo agonist activity at TGR5 in wildtype C57BL/6J mouse assessed as increase in GLP-1 secretion in blood at 50 mg/kg, po preadministered with vildagliptin for 1 hrs followed by compound administration and measured after 4 hrs; type: functional, organism-based
[26] = Acute toxicity in overnight fasted male C57BL/6J mouse model assessed as effect on ALT level in blood at 50 mg/kg, IG administered for 3 days; type: organism-based; conditions: in vivo, po, 72 h, time 3 day
[27] = species on record: Rattus norvegicus; assay: Muco-adhesive activity in rat intestine assessed as disappearance of peak at 9.793 retention time incubated for 2 hrs by HPLC analysis; type: functional
[28] = test system: Mus musculus; assay: as §1, with “AUC (0 to 120 min)” for “level”, “test relative to control” for “test”; type: functional; parameters: scale not given: the % may be the effect or the level left; conditions: time 5 hrs
[29] = Acute toxicity in overnight fasted male C57BL/6J mouse model assessed as effect on uric acid level in blood at 50 mg/kg, IG administered for 3 days; type: organism-based; conditions: in vivo, po, 72 h, time 3 day
[30] = Acute toxicity in overnight fasted male C57BL/6J mouse model assessed as behavioral abnormalities at 50 to 200 mg/kg, IG administered for 3 days; type: organism-based; conditions: in vivo, po, 72 h, dose 50-200 mg/kg, time 3 day
[31] = test system: Mus musculus; assay: Hypoglycemic activity in diet-induced obese mouse model assessed as reduction in blood glucose level at 50 mg/kg, po administered every day and measured after 4 to 8 days; type: functional, organism-based; conditions: time 4-8 day
[32] = Acute toxicity in overnight fasted male C57BL/6J mouse model assessed as increase in serum uric acid level at 200 mg/kg, IG administered for 3 days; type: organism-based; conditions: in vivo, po, 72 h, time 3 day
[33] = test system: Mus musculus; assay: Insulin sensitizing activity in over-night fasted male C57BL/6J mouse model assessed as reduction in plasma glucose AUC level at 50 mg/kg, po preadministered with compound for 60 mins followed by insulin administration and measured after 120 mins by insulin tolerance test; type: functional, organism-based; conditions: time 180.0 min
[34] = test system: Mus musculus; assay: Hypoglycemic activity in diet-induced obese mouse model assessed as reduction in blood glucose AUC (0 to 12 days) level at 50 mg/kg, po administered every day and measured after 12 days relative to control; type: functional; parameters: scale not given: the % may be the effect or the level left; conditions: time 12 day
[35] = test system: Mus musculus; assay: Induction of GLP-1 secretion in TGR5-/- mouse model at 50 mg/kg, po preadministered with vildagliptin for 1 hrs followed by compound administration and measured after 4 hrs; type: functional, organism-based
[36] = Acute toxicity in overnight fasted male C57BL/6J mouse model assessed as effect on AST level in blood at 50 mg/kg, IG administered for 3 days; type: organism-based; conditions: in vivo, po, 72 h, time 3 day
[37] = Apparent permeability across basolateral to apical side in human Caco-2 cells assessed as drug recovery at 10 uM incubated for 2 hrs by LC-MS/MS analysis
[38] = Apparent permeability across apical to basolateral side in human Caco-2 cells at 10 uM incubated for 2 hrs by LC-MS/MS analysis
[39] = Apparent permeability across apical to basolateral side in human Caco-2 cells assessed as drug recovery at 10 uM incubated for 2 hrs by LC-MS/MS analysis
[40] = Efflux ratio of apparent permeability across basolateral to apical over apical to basolateral side in human Caco-2 cells at 10 uM incubated for 2 hrs by LC-MS/MS analysis
[41] = Apparent permeability across basolateral to apical side in human Caco-2 cells at 10 uM incubated for 2 hrs by LC-MS/MS analysis

COCCc1ccc(OCC(O)CNC(C)C)cc1 (configuration not stated) [METOPROLOL]
recovery at 2 h, 2 µM [1]: 104% | Papp A→B at 2 h, 2 µM [2]: 18.8 ×10⁻⁶ cm/s

O=C(c1cnccc1Oc1cc(Cl)ccc1Cl)N1CCN(C2CC2)c2ccccc21
Activity [3]: Toxic | Activity [4]: Toxic

CC(C)(C)NCC(O)COc1cccc2c1CC(O)C(O)C2 (configuration not stated) [NADOLOL]
recovery at 2 h, 2 µM [1]: 102%

O=C(CCCCCN1C(=O)C=CC1=O)NCCCCNC(=O)CCc1cc(Cl)c(Oc2ccncc2C(=O)N2CCN(C3CC3)c3ccccc32)cc1Cl
Activity [5]: inactive | EC50 [6]: 200 nM | EC50 [7]: 835 nM

O=C(CCCCCN1C(=O)C=CC1=O)NCCCCCCCCNC(=O)CCc1cc(Cl)c(Oc2ccncc2C(=O)N2CCN(C3CC3)c3ccccc32)cc1Cl
Activity [5]: inactive | EC50 [6]: 355 nM | EC50 [7]: 400 nM

O=C(CCCCCN1C(=O)C=CC1=O)NCCCCCCNC(=O)CCc1cc(Cl)c(Oc2ccncc2C(=O)N2CCN(C3CC3)c3ccccc32)cc1Cl
Papp B→A at 2 h, 2 µM [8]: < 0.432 ×10⁻⁶ cm/s | Activity [9]: Non-toxic | Activity [3]: Non-toxic | Activity [10]: inactive | Activity [11]: Toxic | Activity [12]: Non-toxic | Activity [13]: Active | Activity [14]: Active | Activity [15]: Non-toxic | Activity [16]: Non-toxic | Activity [17]: 15.9% | recovery at 2 h, 2 µM [1]: < 1.1% | Activity [18]: Non-toxic | Activity [19]: Toxic | Activity [20]: Toxic | recovery at 2 h, 2 µM [21]: < 22.8% | Activity [22]: Non-toxic | Activity [23]: Active | Papp A→B at 2 h, 2 µM [2]: < 0.48 ×10⁻⁶ cm/s | Activity [24]: Toxic | Activity [25]: Active | Activity [26]: Non-toxic | Activity [5]: Active | Activity [27]: Active | Activity [28]: 19.5% | Activity [29]: Non-toxic | Activity [30]: Non-toxic | Activity [31]: Active | Activity [32]: Toxic | Activity [33]: Active | EC50 [6]: 166 nM | Activity [34]: 10.4% | Activity [35]: inactive | Activity [36]: Non-toxic | EC50 [7]: 138 nM | Activity [4]: Non-toxic

C[C@H]1O[C@@H](O[C@H]2[C@@H](O)C[C@H](O[C@H]3[C@@H](O)C[C@H](O[C@H]4CC[C@@]5(C)[C@H](CC[C@@H]6[C@@H]5C[C@@H](O)[C@]5(C)[C@@H](C7=CC(=O)OC7)CC[C@]65O)C4)O[C@@H]3C)O[C@@H]2C)C[C@H](O)[C@@H]1O [DIGOXIN]
recovery at 2 h, 10 µM [37]: 103% | Papp A→B at 2 h, 10 µM [38]: 0.024 ×10⁻⁶ cm/s | recovery at 2 h, 10 µM [39]: 102% | efflux ratio at 2 h, 10 µM [40]: 535 | Papp B→A at 2 h, 10 µM [41]: 13.1 ×10⁻⁶ cm/s
